The values that follow come from paper PMC9448872 (Frontiers in Cell and Developmental Biology, 2022).

Data set [1] relates to αvβ6 endocytosis in C76 cells. The data set can be described thus: Flow cytometry internalisation assay using TCEP reduction in C76 cells (inhibitors, siRNA). In kind it is cell-based. Details: internalisation of A20FMDV2 with Clathrin inhibitor: concentration or dose not given beside the values. In general terms: In flow cytometry, cells or beads pass a laser one at a time.

Data set [2] has as its system C76 cells. In words: Transwell migration assay. The note with it: Transwells coated with 0.5 μg/ml LAP, 16 h, vehicle control 547 ± 128, p < 0.05.
The test system of data set [3] is C76 cells. The data set can be described thus: Cell viability by flow cytometry and DAPI uptake. In kind it is cell-based. To be noted: 500nM of TCEP, DAPI uptake, mean, n = 2 (95% without TCEP).
The target in another data set is T1, αvβ6 (Homo sapiens, UniProt P06756+P18564).
T1 construct: endogenous in cells; host or cells: panel of breast, pancreas and lung cell lines (C76, C102, C139, H322M, H441, H358, MCF10A, MCF10CA1α, MDAMB468, BT20, HPDE, NHBE)
T1 sequence (P06756 31-889 limits assumed): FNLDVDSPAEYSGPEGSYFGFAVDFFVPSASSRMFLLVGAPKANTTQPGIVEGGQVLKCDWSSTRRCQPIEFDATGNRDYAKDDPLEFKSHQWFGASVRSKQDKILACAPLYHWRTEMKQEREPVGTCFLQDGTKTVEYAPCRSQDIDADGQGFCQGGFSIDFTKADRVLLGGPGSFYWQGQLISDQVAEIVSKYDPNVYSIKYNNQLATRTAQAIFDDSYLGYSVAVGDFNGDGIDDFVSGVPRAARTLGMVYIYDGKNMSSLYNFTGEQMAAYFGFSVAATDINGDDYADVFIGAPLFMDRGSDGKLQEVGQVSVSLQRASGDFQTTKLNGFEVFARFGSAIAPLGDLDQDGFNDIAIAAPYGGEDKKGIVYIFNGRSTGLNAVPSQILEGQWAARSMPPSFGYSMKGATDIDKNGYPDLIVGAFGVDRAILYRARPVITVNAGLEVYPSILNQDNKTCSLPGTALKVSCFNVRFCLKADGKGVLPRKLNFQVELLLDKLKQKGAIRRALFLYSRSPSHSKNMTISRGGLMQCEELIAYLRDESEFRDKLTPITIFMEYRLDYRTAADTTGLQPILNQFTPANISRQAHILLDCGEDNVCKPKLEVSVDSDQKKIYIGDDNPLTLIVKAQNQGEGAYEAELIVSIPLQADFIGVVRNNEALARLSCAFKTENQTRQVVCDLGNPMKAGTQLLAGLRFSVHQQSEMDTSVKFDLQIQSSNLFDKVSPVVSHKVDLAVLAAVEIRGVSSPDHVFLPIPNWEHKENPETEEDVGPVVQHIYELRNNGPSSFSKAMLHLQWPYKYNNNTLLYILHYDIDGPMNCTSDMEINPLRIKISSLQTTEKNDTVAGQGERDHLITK
T1 sequence (P06756 891-1048 limits assumed): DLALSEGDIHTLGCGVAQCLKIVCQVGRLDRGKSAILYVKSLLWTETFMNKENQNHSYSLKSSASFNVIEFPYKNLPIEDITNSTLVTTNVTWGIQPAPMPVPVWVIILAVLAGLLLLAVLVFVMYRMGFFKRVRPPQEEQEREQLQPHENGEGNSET
T1 sequence (P18564 22-788): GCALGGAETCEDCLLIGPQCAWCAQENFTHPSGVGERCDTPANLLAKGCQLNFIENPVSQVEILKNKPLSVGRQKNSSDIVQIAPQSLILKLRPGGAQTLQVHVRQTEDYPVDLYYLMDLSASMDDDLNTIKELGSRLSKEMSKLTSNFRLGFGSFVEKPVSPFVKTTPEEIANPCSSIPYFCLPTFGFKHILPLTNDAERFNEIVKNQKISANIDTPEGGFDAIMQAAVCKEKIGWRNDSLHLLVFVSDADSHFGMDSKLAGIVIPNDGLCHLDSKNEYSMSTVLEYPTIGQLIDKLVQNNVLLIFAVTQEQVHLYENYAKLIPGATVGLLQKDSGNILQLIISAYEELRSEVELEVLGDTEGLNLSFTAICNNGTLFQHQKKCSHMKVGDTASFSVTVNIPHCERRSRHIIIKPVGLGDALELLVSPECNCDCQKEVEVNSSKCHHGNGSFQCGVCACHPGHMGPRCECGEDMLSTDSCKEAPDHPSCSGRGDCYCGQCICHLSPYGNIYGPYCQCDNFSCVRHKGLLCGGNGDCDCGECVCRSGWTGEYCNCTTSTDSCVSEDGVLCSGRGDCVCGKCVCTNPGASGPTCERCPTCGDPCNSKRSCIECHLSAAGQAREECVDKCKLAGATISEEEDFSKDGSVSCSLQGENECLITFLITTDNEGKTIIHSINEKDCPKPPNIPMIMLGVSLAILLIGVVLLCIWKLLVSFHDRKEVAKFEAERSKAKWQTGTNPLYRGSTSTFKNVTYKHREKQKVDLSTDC
To be noted: cited from earlier work.

A further data set relates to FMDV. The note with it: cited from earlier work.

Each structure is given as a SMILES string.

As for `CN(C)CCCN1c2ccccc2Sc2ccc(Cl)cc21` [Chlorpromazine], in data set [1] (C76 cells pre-treated with 2 ug/ml Chlorpromazine, 20 min, n = 3, p < 0.05), the “internalisation of αvβ6-bound Cy5-SS-(GS)5-bioA20FMDV2 with clathrin inhibitor” value was found to be 39 ± 2.5%. The “internalisation of A20FMDV2 with Clathrin inhibitor” value in data set [1] (C76 cells, ARFGAP siRNA knockdown + clathrin inhibitor, n = 3) was 6.2 ± 3.5%; in data set [1] (C76 cells, ASAP siRNA knockdown + clathrin inhibitor, n = 3) it was 9.4 ± 9.9%; in data set [1] (C76 cells, CBL siRNA knockdown + clathrin inhibitor, n = 3), 14 ± 8%; in data set [1] (C76 cells, CBLB siRNA knockdown + clathrin inhibitor, n = 3), 7.4 ± 3.9%; in data set [1] (C76 cells, CYTH2 siRNA knockdown + clathrin inhibitor, n = 3), 13 ± 11.7%; in data set [1] (C76 cells, non-targeting (NT) siRNA + chlorpromazine, n = 3, not significant), 14 ± 6.5%. For the same compound, in the data set on C76 cells [2], the “number of cells migrating towards LAP” value is given as 225 ± 73.
In the data set on C76 cells [3], `O=C(O)CCP(CCC(=O)O)CCC(=O)O` [TCEP, tris(2-carboxyethyl)phosphine] had a cells viable of 68%.
For the compound `CCCCC[C@@H](O)[C@H]1C(=O)O[C@H](C)[C@@H](O)/C=C/C=C/C=C/C=C/C=C(\C)[C@@H](O)C[C@H](O)C[C@H](O)C[C@H](O)C[C@H](O)C[C@H](O)C[C@@H]1O` [Filipin], the “internalisation of αvβ6-bound Cy5-SS-(GS)5-bioA20FMDV2 with caveolin inhibitor” value in data set [1] (C76 cells pre-treated with 10 ug/ml Filipin, n = 3, p < 0.05) stood at 19.7 ± 3.9%. In data set [1] (C76 cells, caveolin inhibited (Filipin)), the “reduction in the number of cells with internalised αVβ6-A20FMDV2” value stood at 41%. On αvβ6, the “reduction in αvβ6 internalisation with caveolin inhibitor” value was “not statistically significant”. Besides, the “number of cells migrating towards LAP” value with C76 cells [2] turned out to be 280 ± 51.
`OC[C@H]1O[C@@](CO)(O[C@H]2O[C@H](CO)[C@@H](O)[C@H](O)[C@H]2O)[C@@H](O)[C@@H]1O` [sucrose]: the “reduction of αvβ6 dependent FMDV infection” value in the data set on FMDV was 95%.
